Source: ChEMBL document CHEMBL3507680, “University of Dundee, Gates Library screen for HepG2 cell viability”

Assay: Human HepG2 cell viability assay in 384 well format
Format: toxicity, cell-based
Set-up: dose 125 nL, time 70.5 hour; concentration not given beside the values
Conditions: HepG2 cells, read-out: Inhibition

Row | SMILES | cytotoxicity at 70.5 h [%]
1 | COc1ccc(C)cc1CC(=O)NC(CC(=O)O)c1ccc(F)cc1 (stereo not drawn) | -18.4
2 | COC1CCN(C(=O)Cn2cccc(C(F)(F)F)c2=O)C1 (stereo not drawn) | -8.78
3 | Cc1cc(C2CCCN2Cc2cc(=O)n(C)c(=O)n2C)on1 (stereo not drawn) | -12.3
4 | CC1(C)CNC(=O)c2nc(-c3nnc(-c4ccccc4)[nH]3)[nH]c2C1 | 0.339
5 | COc1ncc(CN2C[C@@H]3C[C@@H](O)CN3C[C@@H]2Cc2ccccc2)cn1 | 18.8
6 | CNS(=O)(=O)c1cccc(C(C)NCc2ccc(C)o2)c1 (stereo not drawn) | -2.97
7 | CN1CCN(C(=O)Cc2ccccn2)Cc2cccnc21 | -2.09
8 | CC(C)(C)NC(=O)CNC(=O)Nc1cc(-c2ccccc2)ns1 | -14.8
9 | CS(=O)(=O)N[C@@H]1CN(C(=O)c2cccnc2)[C@@H]2CCCO[C@@H]21 | -5.12
10 | CN(C)C(=O)C1CCCN(C(=O)c2ccccc2-n2cc(CN)cn2)C1 (stereo not drawn) | 48.5
11 | CCn1ncc2c1C(COC)CN(Cc1ccc(C)o1)C2 (stereo not drawn) | 2.21
12 | O=C(CCc1ccccc1)N1CC(n2cncn2)C1 | -7.88
13 | Cc1cc(C)n(-c2ccc(C(=O)NCC(c3cccs3)N(C)C)cc2)n1 (stereo not drawn) | -4.5
14 | Cn1cc(NC(=O)c2cccc(Cl)c2)c(=O)n(C)c1=O | 24
15 | Cn1c(=O)n(C)c2nc(Br)c(CC(=O)c3ccccc3)n2c1=O | -4.55
16 | CC(C)Nc1nc2c(c(N(C)C)n1)CCN(Cc1nccn1C)CC2 | 10.1
17 | CC(=O)c1cn(CC(=O)N2CCCC(O)(CO)C2)c2ccccc12 (stereo not drawn) | 28
18 | Cc1ccc(F)c(OC2(C(=O)O)CCN(C(=O)c3ccccc3)CC2)c1 | -6.1
19 | COCC(=O)NCc1cccnc1-n1cnc2ccccc21 | -0.396
20 | CNC(=O)COc1ccccc1CNC1CCc2ncnn2C1 (stereo not drawn) | 29.2
21 | CC(C)(C)n1cc(NC(=O)C2CN(Cc3ccccc3)CCO2)cn1 (stereo not drawn) | -0.308
22 | Cc1nc(C)n(C2CCCN(C(=O)c3cnc[nH]3)C2)n1 (stereo not drawn) | -7.11
23 | Cc1ccc(-c2ccnc(N3CCC4(CC3)CNC(=O)C4)n2)c(C)n1 | 15.1

Row | SMILES | cytotoxicity at 70.5 h [%]
24 | CC(O)CN1CCN(C(=O)c2ccc(N(C)C)nn2)CC1 (stereo not drawn) | -4.33
25 | Cn1c(SCC(=O)NC(C)(C#N)C2CC2)nc2ccccc21 (stereo not drawn) | 0.675
26 | CS(=O)(=O)CCSCc1cc(F)cc2cccnc12 | -16.7
27 | Cc1cccc(CN2CC[C@@H]3[C@@H](CO[C@H]3CNc3ncccn3)C2)n1 | -8.04
28 | COc1cc2c(cc1CNC(Cc1cccs1)c1nccs1)OCO2 (stereo not drawn) | 18.9
29 | CN(C)C(=O)CC1CC2(CCN(C(=O)N(C)C)CC2)Oc2ccccc21 (stereo not drawn) | -11.4
30 | COCCN1CCC(c2nc3cc(C)ccc3[nH]2)CC1 | -8.34
31 | CNC(=O)CN1C(=O)CCC12CCCN(Cc1cccc(F)c1)C2 (stereo not drawn) | -6.75
32 | NC(=O)CN1CC(O)c2ccccc2S1(=O)=O (stereo not drawn) | -9.19
33 | CC(C)N1CCC(c2ccnc3c(C(=O)N4CCCC4)ncn23)CC1 | -3.82
34 | CCS(=O)(=O)c1ccc(N2CCC(NC(=O)C3CCCCC3)CC2)cc1 | 0.314
35 | CN(Cc1ccncc1)C1CC2(CCN(c3ncc(F)cn3)CC2)C1 | 2.52
36 | COc1ncccc1C(=O)Nc1nc2c(s1)CN(S(=O)(=O)C1CC1)CC2 | 3.95
37 | CCc1nc(CN(C)CC2CCN(CCO)CC2)no1 | -9.2
38 | CCC(Nc1ncccn1)c1ccc(OC)cc1 (stereo not drawn) | 6.83
39 | COCCO[C@H]1CCN(Cc2cccs2)[C@H]1Cc1cccnc1 | -8.35
40 | Cc1nccn1C1CCCN(C(=O)c2cccc(Cn3ccnc3)c2)C1 (stereo not drawn) | -1.32
41 | O=C(COCC1CC1)Nc1ncccc1I | 2.42
42 | COCc1nc(C(=O)N2CCCC2c2cccs2)cs1 (stereo not drawn) | -7.86
43 | N#CC1(C(=O)NCc2ccc(F)cc2)CCCC1 | 3.1
44 | CCc1ccc(C(O)CN2CCN(c3cccc(OC)c3)CC2)cc1 (stereo not drawn) | -29.4
45 | CCOc1ccnc(N2CCN(C(=O)c3cn[nH]c3C)CC2)n1 | 13.7
46 | F[C@@H]1CN(CC2CC2)C[C@@H]1OCc1nc2ccc(C(F)(F)F)cc2[nH]1 | 0.533

Row | SMILES | cytotoxicity at 70.5 h [%]
47 | CC(C)n1cnnc1CN(C)C(=O)c1cc(COc2ccccc2)[nH]n1 | 2.63
48 | Cc1nnc(NCCc2coc(-c3ccc(F)cc3)n2)c(C#N)c1C | -13.9
49 | CCNC(=O)C1CCN(c2cc(-c3ccccc3)nc3ccnn23)C1 (stereo not drawn) | -0.497
50 | CCN(CCc1nc2cc(C)ccc2[nH]1)C(=O)[C@@H](N)COC | 10
51 | Cc1nc2ccc(C(=O)N(CCC#N)CCC#N)cc2nc1C | 11.6
52 | O=C1Nc2ccccc2C1C1CCN(C(=O)C2CC2)CC1 (stereo not drawn) | -6.49
53 | CCN(C)CC(C)Cn1cnc(-c2ccccc2)c1-c1cncn1CC (stereo not drawn) | -10.8
54 | Cc1cnn(CCCNC2Cc3ccccc3C2)c1 | 9.93
55 | Cn1c(Cn2ccnc2)nnc1C1CCCN(Cc2ccncc2)C1 (stereo not drawn) | 14
56 | Cc1nc(C)n(C2CCCN(C(=O)CCOc3cccc(F)c3)C2)n1 (stereo not drawn) | -6.19
57 | CSc1cccc(CN(C)C(=O)Nc2nc(C)n(C)n2)c1 | -3.93
58 | Cc1ocnc1C(=O)N1CC[C@@]2(O)CCN(C(=O)N3CCCC3)C[C@H]2C1 | -4.39
59 | O=C(NCCOc1ncc(Cl)cc1Cl)c1ccncc1 | 1.47
60 | O=C1CCC(C(=O)NCCOc2cccc(Cl)c2Cl)CN1 (stereo not drawn) | -13.1
61 | CNCCc1nc2cc(F)ccc2[nH]1 | -5.66
62 | O=C(c1ccco1)N1CCCC1C1CCN(Cc2ccccc2)CC1 (stereo not drawn) | -5.08
63 | COCCN(Cc1ccccn1)C(=O)C1CCCCCN1C (stereo not drawn) | -9.93
64 | CN(C)c1cc(C2CCCN(S(=O)(=O)C3CCCC3)C2)ccn1 (stereo not drawn) | -7.46
65 | CC(C)(C)c1noc(-c2ccnc(-n3cnc(C(=O)O)c3)c2)n1 | -4.5
66 | COc1ccc(F)cc1C[S+]([O-])CC(=O)NCc1ccccc1 (stereo not drawn) | -4.53
67 | CCC(=O)c1ccc(Br)cc1NN1c2cc(Br)ccc2C(=O)C1(C)OC (stereo not drawn) | 13.3
68 | CC(C)Oc1ncccc1CNC(=O)NC1CCOc2ccccc21 (stereo not drawn) | 8.32
69 | COc1ccccc1N1CCCC(NC(=O)Nc2cccnc2)C1 (stereo not drawn) | 8.99

Row | SMILES | cytotoxicity at 70.5 h [%]
70 | CCN(CC)C1CCN(C(=O)NCc2nncn2CC)CC1 | -0.0969
71 | CC1CN(C)c2ccccc2CN1C(=O)CSc1ccncc1 (stereo not drawn) | 1.51
72 | COc1ccc(-c2noc(C(=O)NCCN3CCCCC3)n2)cc1OC | 26.1
73 | Cc1ccccc1CN(C)C(=O)CN1CCCC(Cn2cncn2)C1 (stereo not drawn) | -6.64
74 | Cc1csc(C2(NCc3ccc(OCC(F)F)cc3)CCCC2)n1 | -5.7
75 | COc1ccccc1CN(C)c1nc2c(cnn2C)c(=O)[nH]1 | -10.3
76 | CC(C)c1[nH]c2ncccc2c1CN1CCOCC1 | 4.28
77 | CCS(=O)(=O)NCc1nc(C)cc(N2CCOCC2)n1 | -6.72
78 | CCS(=O)(=O)CC(=O)N1CCCC1c1noc(C2CC2)n1 (stereo not drawn) | -8.04
79 | CN1C[C@@H](N)C[C@H]1C(=O)N1CCC(CCCc2ccccc2)CC1 | -0.968
80 | Cc1noc([C@@]23CCO[C@@H]2CCN(C(=O)c2ccsc2)C3)n1 | -1.85
81 | CCn1nnc2c1C(COCCN(C)C)CN(S(=O)(=O)CC)C2 (stereo not drawn) | -1.87
82 | CC(C)c1nccn1-c1cncc(C2CCCN2Cc2cccnc2)n1 (stereo not drawn) | -1.69
83 | CSC1(CNC(=O)N(C)Cc2sccc2C)CCOCC1 | 29.3
84 | O=C1NCCO[C@H]2CN(C(=O)c3cccs3)CC[C@@H]12 | 20.1
85 | Cc1c(C[S+](C)[O-])cccc1NC(=O)c1cc(Cl)ccn1 (stereo not drawn) | -2.39
86 | CCc1cc(NC(C)(C)C)nc(N2CCOCC2)n1 | -12
87 | N#Cc1ccccc1N1CCC(Nc2nccnc2C#N)CC1 | 0.142
88 | COCC1CN(CC2CC2)Cc2nccn2C1 (stereo not drawn) | -6.11
89 | CC(C)CN1C(=O)CC[C@]12CC[C@@H](NC(=O)NCc1cccnc1)CC2 | -3.62
90 | CC(C(=O)NN1CCOCC1)n1nc(C(F)(F)F)c(Cl)c1C1CC1 (stereo not drawn) | 6.2
91 | CSc1nnc(CNC(=O)Nc2ccccc2F)n1C | -7.23
92 | CCCc1nnsc1C(=O)NCC1CCN(C(=O)c2ccncc2)CC1 | 25.7

Row | SMILES | cytotoxicity at 70.5 h [%]
93 | Cc1cc(-c2cnn(CCNC(=O)c3cccnc3)c2C2CC2)on1 | -16.3
94 | CCOc1cccc(C(=O)NCCC(=O)NCc2ccncc2)c1 | 23
95 | Cc1nn(C)cc1NC(=O)CC1CCN(C(=O)Cc2ccccc2)CC1 | -4.98
96 | Cc1ccn(CCC(=O)NC(C)Cc2ccco2)n1 (stereo not drawn) | -6.56
97 | Cc1cc(NC(=O)NCC(C)N2CCc3ccccc32)no1 (stereo not drawn) | -5.5
98 | NC(=O)C(NC(=O)c1ccc(NC2CC2)nc1)c1ccccc1 (stereo not drawn) | -5.49
99 | CC(=O)Nc1ccc(Oc2cc(C)nc(C3CCNCC3)c2)cc1 | -15.5
100 | CCNc1ncc(C(=O)N2CCc3c(nc(C)nc3N(C)C)C2)cn1 | 25.4
101 | COCCCN1CC2(CCN(C(=O)c3ccc(=O)n(C)c3)CC2)CC1=O | -9.99
102 | CCN(CC)c1nc(C)cc(C(=O)Nc2ccc(Br)cc2)n1 | 3.54
103 | Cc1cc(N2CCCC(c3[nH]ncc3Cc3ccccc3)C2)nc(N)n1 (stereo not drawn) | 11.1
104 | O=C(C1CCS(=O)(=O)CC1)N1C[C@H]2CC[C@@H]1CN(Cc1ccccc1)C2 | 10.4
105 | CN1CCN(Cc2cccnc2)C(=O)C12CCN(CC1CCOC1)CC2 (stereo not drawn) | -6.06
106 | CCOc1cc(/C=C/c2ncc(C(=O)NC)s2)ccc1OC | -13.2
107 | COCC(=O)N1CCC2(CCN(c3cnn(C)c3)C2=O)C1 (stereo not drawn) | 34.5
108 | CC(C)c1nc(/C=C/c2cnn(-c3ccc(Cl)cc3)c2)ncc1C(=O)O | 22.7
109 | C/N=C1\c2cc3cc(OC)ccc3n2CCN1C | -6.1
110 | CC(C)C(C)NC(=O)Nc1ccc(F)c(C(N)=O)c1 (stereo not drawn) | -3.91
111 | Cc1cc(C)cc(NCCC(=O)NC2CCN(C(=O)C3CC3)CC2)c1 | -2.45
112 | CN(C)CCOCC1CN(C(=O)c2ccccn2)Cc2ccnn2C1 (stereo not drawn) | 6.38
113 | Cc1ccc(CN2CC[C@H]3OCC[C@@H](C(=O)NCC4CC4)[C@@H]3C2)o1 | -5.45
